The record followed here is patent US9889180B2, “Method of treating cancer” (Agency for Science, Technology and Research, priority 2012, dated 2018).

The test system of one data set is RWPE1-MYC cells. Nature of the data set: FACS cell death analysis in RWPE1-MYC cells. It counts as cell-based, human. The settings on record: DZNep (2.5 μM) for 3 days with increasing doses of IFN-γ. As to the method: For the assessment of cell death, cells were harvested in 70% ethanol. Fixed cells were stained with Propidium Iodide (P.I) (50 μg/mL). The stained cells were analyzed for DNA content by FACS in a FACSCalibur (Becton Dickinson Instrument). % of cell death was defined as the sub-G1 population quantified using the CellQuest software (Becton Dickinson). The percentage of dead cells or sub-G1 cells was calculated by comparing the results of each experiment to the results from DMSO-treated cells. Each assay was repeated a minimum of three times, with results reported as means+s.e.m.

Data set [1] has as its system IFNGR1 expression and STAT1 activation. Briefly: Western blot of IFNGR1 and IFN signaling in T47D cells. It counts as cell-based, human. As to the method:
(§1) Western Blotting was performed as described previously. Briefly, Cells were scraped, collected, and lysed in RIPA buffer. To release histones from chromatin, cell lysates were further sonicated for 15 sec using a XL2000 Microson Ultrasonic Processor (Misonix). Equal amounts of protein (30 μg) were separated on SDS-polyacrylamide gels and transferred to PVDF membranes. The blots were probed with antibodies against EED (07-368), SUZ12 (07-379), trimethylated H3-K27 (07-449), Acetyl-Histone H3 (06-599), which were purchased from Upstate Biotechnology. IFNGR1 (GIR-94) and anti-IFI16 (1G7) were purchased from Santa Cruz. EZH2 phospho S21 (00388) was purchased from Bethyl Laboratories. EZH2 (AC22), P110α PI3K, p-AKT (T308), p-AKT (S473), pSTAT1Y701, total STAT1, Histone H3 (3H1), Beclin-1 and cleaved PARP were purchased from Cell Signaling. Myc and Actin were purchased from Roche Applied Science and Sigma-Aldrich, respectively.
(Immunoblotting shows a protein as a band on a membrane.)

Data set [2] concerns IFN responsive genes (IFI16, IRF1, OAS1). Nature of the data set: Quantitative PCR of IFN responsive genes in DU145 prostatospheres. Format: cell-based, human. The conditions noted are these: DZNep with IFN-γ. As to the method: Total RNA was isolated by using Trizol (Invitrogen) and purified with the RNeasy Mini Kit (Qiagen). The microarray hybridization was performed using the Illumina Gene Expression Sentrix BeadChip HumanRef-8_V3, and data analysis was performed by GeneSpring software from Agilent Technologies as described previously. The analyzed gene sets by GeneSpring were next subjected to Ingenuity Pathway Analysis (IPA) for gene ontology (GO) analysis. Reverse transcription and quantitative PCR assays were performed using High Capacity cDNA Archive kit and KAPA SyBr Fast qPCR kit (KAPA biosystems). For quantification of mRNA levels, 18S level was used as an internal control. All reactions were analyzed in an Applied Biosystems PRISM 7500 Fast Real-Time PCR system in 96-well plate format. Prostatospheres were generated according to protocols known to the skilled person in the art. […] 7 days old prostatospheres formed were stained with 4 μg/ml p-Iodonitrotetrazolium Violet (INT) overnight and were counted and analyzed using a GelCount™ automatic plate scanner (Oxford Optronics) and GelCount Version 0.025.1 software (Oxford Optronics). […]

A further data set concerns the target T1, EZH2/PRC2 and H3K27me3 (Homo sapiens, UniProt Q15910).
T1 construct: endogenous in cells; host or cells: DU145 (named by the earlier reading of the assay)
Nature of the data set: Western blot of PRC2 proteins and H3K27me3 in DU145 cells. Format: cell-based. The settings on record: DZNep. The protocol:
as §1

Data set [3] has as its system EZH2 and IFNGR1 expression. Briefly: Immunohistochemistry of EZH2 and IFNGR1 in DU145 xenograft tumors. The conditions noted are these: tumors resected from treated mice. It counts as in vivo. The protocol:
Tissue microarray slides (PR956, BR1503b, LC2083, and LV6161) were purchased from US Biomax. Staining and image analysis of tissue microarray were performed by Histopathology Department from Institute of Molecular and Cell Biology, Agency for Science, Technology, and Research (A*STAR), Singapore. Anti-EZH2 (D2C9 XP) antibody was purchased from Cell Signaling, anti-MYC (9E10) and anti-IFNGR1 antibody (GIR-94) was purchased from Santa Cruz Biotechnology. Briefly, five-micron paraffin-embedded tissue sections cut, deparaffinized, rehydrated, antigens were retrieved by Proteinase K solution; sections were then incubated in 3% H2O2 at room temperature to block endogenous peroxidase. Slides were incubated in primary antibody against EZH2 or IFNGR1 for 45 mins followed by 30 min incubation with anti-mouse Labelled Polymer (Dako, Calif.). Specificity of the immunostaining was determined by the inclusion of isotype-specific IgG as negative control. […]
For in vivo evaluation of DZNep and IFN-γ treatment, the experiments were conducted in compliance with animal protocol approved by the ASTAR-Biopolis Institutional Animal Care and Use Committee (IACUC) of Singapore. […] Tumors were measured by vernier calliper at least twice per week and tumors volume was calculated with formula: V=W*W*L/2. […] Differences among groups and treatments were determined by ANOVA followed by t tests. […]

Data set [4] relates to JAK2 phosphorylation (Tyr1007/1008). Nature of the data set: pJAK2 and total JAK2 ELISA assay in DU145 cells. It counts as cell-based, human. The conditions noted are these: in response to IFN-γ (25 ng/mL) stimulation. The protocol:
pJAK2 levels were assessed using an ELISA assay kit (Tyr1007/1008, Life Technologies) and total JAK2 level with JAK2 (total) ELISA assay kit. Cells were first lysed with RIPA buffer and processed in the same way as western blot samples. pJAK2 and total JAK2 levels were determined by performing the ELISA assay on the processed cell lysates according to the manufacturer's protocol. The results were expressed as fold change after normalizing the pJAK2 (Tyr1007/1008) level to the total JAK2 level.
(ELISA stands for enzyme-linked immunosorbent assay.)

T1 sequence (Q15910 whole entry): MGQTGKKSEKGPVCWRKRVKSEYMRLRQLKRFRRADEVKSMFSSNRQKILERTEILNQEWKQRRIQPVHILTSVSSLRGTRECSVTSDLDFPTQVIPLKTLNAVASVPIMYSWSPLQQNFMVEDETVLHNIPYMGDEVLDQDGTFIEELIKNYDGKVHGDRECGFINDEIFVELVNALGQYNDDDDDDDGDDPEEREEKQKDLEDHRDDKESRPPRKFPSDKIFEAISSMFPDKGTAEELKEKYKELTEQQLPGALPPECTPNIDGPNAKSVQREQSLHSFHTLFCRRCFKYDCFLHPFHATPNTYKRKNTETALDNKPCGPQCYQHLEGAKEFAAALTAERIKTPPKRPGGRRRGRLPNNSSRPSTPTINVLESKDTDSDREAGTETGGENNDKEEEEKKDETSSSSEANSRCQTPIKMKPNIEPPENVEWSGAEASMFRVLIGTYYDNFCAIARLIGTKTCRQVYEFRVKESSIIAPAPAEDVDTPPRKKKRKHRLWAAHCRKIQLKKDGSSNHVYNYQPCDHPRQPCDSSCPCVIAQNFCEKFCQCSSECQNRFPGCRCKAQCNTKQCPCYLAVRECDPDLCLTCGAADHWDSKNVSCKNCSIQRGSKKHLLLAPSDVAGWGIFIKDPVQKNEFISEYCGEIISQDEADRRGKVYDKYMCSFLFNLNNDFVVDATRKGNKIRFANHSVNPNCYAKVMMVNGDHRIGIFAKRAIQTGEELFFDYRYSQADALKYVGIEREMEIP
T1 sequence (O75530 whole entry partner): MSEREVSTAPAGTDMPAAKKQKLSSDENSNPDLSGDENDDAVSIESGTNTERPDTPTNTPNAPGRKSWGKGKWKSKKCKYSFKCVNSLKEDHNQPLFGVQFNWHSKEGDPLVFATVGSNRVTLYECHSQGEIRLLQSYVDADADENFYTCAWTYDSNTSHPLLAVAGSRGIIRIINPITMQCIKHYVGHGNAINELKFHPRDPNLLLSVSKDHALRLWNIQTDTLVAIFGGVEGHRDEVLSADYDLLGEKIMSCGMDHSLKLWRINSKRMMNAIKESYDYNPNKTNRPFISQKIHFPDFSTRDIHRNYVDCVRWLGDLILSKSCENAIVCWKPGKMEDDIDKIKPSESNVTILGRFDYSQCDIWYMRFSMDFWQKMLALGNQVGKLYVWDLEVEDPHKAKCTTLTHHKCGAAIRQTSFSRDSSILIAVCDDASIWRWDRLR
T1 sequence (Q15022 whole entry partner): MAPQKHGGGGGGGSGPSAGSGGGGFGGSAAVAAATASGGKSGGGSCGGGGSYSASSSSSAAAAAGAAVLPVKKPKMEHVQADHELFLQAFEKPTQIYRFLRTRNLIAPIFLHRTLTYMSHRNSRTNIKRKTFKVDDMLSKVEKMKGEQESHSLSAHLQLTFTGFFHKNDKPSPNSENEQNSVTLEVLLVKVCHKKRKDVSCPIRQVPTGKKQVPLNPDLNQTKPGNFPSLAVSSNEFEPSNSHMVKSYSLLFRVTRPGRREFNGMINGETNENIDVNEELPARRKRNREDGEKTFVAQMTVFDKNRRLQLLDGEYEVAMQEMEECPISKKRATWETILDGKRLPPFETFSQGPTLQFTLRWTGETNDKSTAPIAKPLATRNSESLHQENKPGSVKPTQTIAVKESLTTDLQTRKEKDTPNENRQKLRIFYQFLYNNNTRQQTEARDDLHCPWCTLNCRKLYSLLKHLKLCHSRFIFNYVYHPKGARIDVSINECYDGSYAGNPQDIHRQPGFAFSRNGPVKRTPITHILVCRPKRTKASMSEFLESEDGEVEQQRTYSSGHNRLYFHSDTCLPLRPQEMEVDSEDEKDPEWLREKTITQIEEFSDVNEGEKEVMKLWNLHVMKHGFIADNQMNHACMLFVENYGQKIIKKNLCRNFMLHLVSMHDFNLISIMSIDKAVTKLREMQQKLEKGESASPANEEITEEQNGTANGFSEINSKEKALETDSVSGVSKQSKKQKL

As for `Cl.Nc1nccc2c1ncn2[C@@H]1C=C(CO)[C@@H](O)[C@H]1O` [DZNep, (−)-1-[(1R,4R,5S)-3-(Hydroxymethyl)-4,5-dihydroxy-2-cyclopenten-1-yl]4-aminoimidazo[4,5-c]pyridine hydrochloride], in the data set with RWPE1-MYC cells, the “induction of apoptosis / cell death” value was “synergistic effect”. Besides, in data set [1], the IFNGR1 expression result is “restored the IFNGR1 expression”. In addition, in data set [1] (DZNep co-treated with IFN-γ), the “STAT1 activation and PARP cleavage” value is “increased STAT1 activation and PARP cleavage”. Further, the “expression of IFN genes in prostatospheres” value in data set [2] was “enhanced response to IFN-γ stimulation”. At EZH2/PRC2 and H3K27me3, the “PRC2 protein levels (EZH2, EED, SUZ12)” value was “depleted EZH2, as well as the other two PRC2 proteins EED and SUZ12”; the “depletion of H3K27me3” value is on record as “much lower efficiency in depleting H3K27me3”. In addition, in data set [3], the “EZH2 expression in tumors (IHC)” value is reported as “downregulation of EZH2” and the “IFNGR1 expression in tumors (IHC)” value is on record as “upregulation of IFNGR1”.

Consider “EZH2 knockdown: EZH2 siRNA: 5′-GACUCUGAAUGCAGUUGCU-3′ (SEQ ID NO: 1) (other strand not given here)”, for which the “JAK2 phosphorylation after knockdown” value in data set [4] is “enhanced”.
